From the NIST ThermoML archive (doi:10.1016/j.jct.2011.04.015)
Numbers after ± are expanded uncertainties.

How the values were obtained:
[1] = Crystal; DTA
[2] = molar enthalpy of vaporization or sublimation; settings: 298.15 K; Crystal; Static calorimetry
[3] = Molar enthalpy of transition or fusion; settings: Crystal; DSC

With `O=c1ccc2ccc(O)cc2o1` [7-hydroxy-2H-chromen-2-one] the Triple point temperature [1] was 503.74 ± 0.39 K, the molar enthalpy [2] was 134 ± 3 kJ/mol and the “Molar enthalpy of transition or fusion” value [3] was 31.2 ± 0.7 kJ/mol.
